Source: paper PMC9411704, “Assessment of the Carcinogenic Potential of Pretomanid in Transgenic Tg.rasH2 Mice” (International Journal of Toxicology, 2022)
Like-named read-outs stand apart in the source and are kept apart here. Marks after values point to notes of the source that are not given here.

Tests used:
[1] = set-up: method as in Drug Prescribing information; settings: ref Drug Prescribing information; cited from earlier work
[2] = test system: Rats; set-up: method as in Drug Prescribing information; settings: ref Drug Prescribing information; cited from earlier work
[3] = test system: Mice; set-up: method as in Drug Prescribing information; settings: ref Drug Prescribing information; cited from earlier work
[4] = test system: Tg.rasH2 mice; settings: for Incidence of lung adenoma, single / Incidence of lung carcinoma / Incidence of lung adenoma, multiple / Incidence of lung tumors, combined: three IP injections of 1000 mg/kg/day urethane; for Incidence of lung adenoma, multiple / Incidence of lung tumors, combined: P < 0.01; for Mean body weight / Mean food consumption: (SD)
Experimental: The vehicle was 0.5% carboxymethylcellulose (CMC) with 0.1% Tween 80 (v/v). The vehicle and pretomanid formulations were administered to mice by oral gavage once daily at a dosing volume of 10 mL/kg. Individual dose volumes were calculated based on each animal’s most recently recorded body weight. The dose formulations were magnetically stirred at room temperature for at least 30 minutes prior to and during dosing. The positive control was urethane in 0.9% sodium chloride and was administered via intraperitoneal injection for a total of three times. The positive control formulation was allowed to stand at room temperature for at least 30 minutes and inverted several times prior to dose administration. Aliquots (0.5 to 1.0 mL) were collected from the top, bottom, and middle of the first (week 1), interim (week 13), and last (week 25) pretomanid dose formulations to assess the accuracy of the concentration and/or homogeneity.
Male and female Tg.rasH2 [CByB6F1-Tg(HRAS)2Jic (+/−hemizygous c-Ha-ras)] mice (n = 110/sex) approximately 5 weeks of age were assigned to the main cohort groups to assess carcinogenicity. Male and female wild type CByB6F1 mice [CByB6F1-Tg(HRAS)2Jic (−/−homozygous c-Ha-ras)] (n = 34/sex) approximately 6 weeks of age were assigned to the cohort of mice used to assess the toxicokinetics of pretomanid and its M50 metabolite. […] All mice were obtained from Taconic Biosciences (Germantown, NY). The supplier verified that the mice were murine pathogen-free and females were nulliparous and non-pregnant. At the time of dosing initiation (Day 1), the toxicokinetic mice were approximately 8 weeks of age. On Day 1 of the study, the body weights of the main cohort mice ranged from 19.2 to 25.9 grams (males) and from 15.9 to 20.4 grams (females), and the body weights of the TK cohort mice ranged from 23.4 to 30.2 grams (males) and from 17.6 to 23.5 grams (females).
This study assessed the carcinogenic potential of pretomanid following repeated oral gavage administration once daily for 26 weeks in hemizygous Tg.rasH2 [CByB6F1-Tg(HRAS)2Jic (+/− hemizygous c-Ha-ras)] mice. This study also evaluated the TK profile of pretomanid and metabolite M50 in wild-type CByB6F1 [CByB6F1-Tg(HRAS)2Jic (−/−homozygous c-Ha-ras)] mice. The study was conducted under GLP regulations.
For carcinogenicity assessment (main cohort), 25 mice/sex were included in the vehicle control and pretomanid-treated groups. At the time of dosing initiation (Day 1), the main cohort mice used for assessing carcinogenicity were approximately 7 weeks of age and weighed between 15.9 to 20.4 g (females) and 19.2 to 25.9 g (males). Male groups (Groups 2, 4, and 6) received pretomanid in vehicle at doses of 5, 15, and 40 mg/kg/day, respectively. Female groups (Groups 3, 5, and 7) received pretomanid in vehicle at doses of 10, 30, and 80 mg/kg/day. Positive control mice (n = 10/sex) were included in the main cohort and received three intraperitoneal injections of urethane in saline (1000 mg/kg/injection) on Days 1, 3, and 5. The test and control articles were administered at a dose volume of 10 mL/kg body weight.
Clinical signs, body weights, and food consumption were assessed for the main cohort animals to monitor animal health and any potential toxicity from pretomanid administration. In-life measurements were recorded in Provantis™ Version 9.4.6.3 (Instem, Philadelphia, PA).
All animals, including those in the TK cohort, were observed twice daily for morbidity and mortality. For animals in the main cohort, cage side observations were performed on the day of dosing within 2 hours after the last animal in each group was dosed (Days 1, 3, and 5 for positive control animals).

## CCN(CC)C(=O)/C(C#N)=C/c1cc(O)c(O)c([N+](=O)[O-])c1 [Entacapone]
[1]
  Genotoxicity: Positive in vitro, negative in vivo
[2]
  Carcinogenicity in rats: Carcinogenic
[3]
  Carcinogenicity in mice: Not carcinogenic

## O=C1CN(/N=C/c2ccc([N+](=O)[O-])o2)C(=O)N1 [Nitrofurantion]
[1]
  Genotoxicity: Positive in vitro, negative in vivo
[2]
  Carcinogenicity in rats: Not carcinogenic in Holtzman rats or Sprague-Dawley rats, carcinogenic in male F344/N rats
[3]
  Carcinogenicity in mice: Not carcinogenic in Swiss or BDF mice, carcinogenic in female B6C3F1 mice

## O=C(Cn1ccnc1[N+](=O)[O-])NCc1ccccc1 [Benznidazole]
[1]
  Genotoxicity: Positive in vitro and in vivo

## CCOC(N)=O [Positive control, urethane]
[4]; female
  Incidence of lung adenoma, single: 0%
  Incidence of lung carcinoma: 0%
  Incidence of lung adenoma, multiple: 100%*
  Incidence of lung tumors, combined: 100%*
[4]; female, urethane 1000 mg/kg IP Days 1, 3, 5, study day 1
  Mean body weight: 17.89 (0.57) Grams
[4]; female, urethane 1000 mg/kg IP Days 1, 3, 5, study day 29
  Mean body weight: 19.81 (0.58) Grams
[4]; female, urethane 1000 mg/kg IP Days 1, 3, 5, study day 57
  Mean body weight: 22.11 (0.68) Grams
[4]; female, urethane 1000 mg/kg IP Days 1, 3, 5, study days 1-8
  Mean food consumption: 3.313 (1.048) Grams/Day
[4]; female, urethane 1000 mg/kg IP Days 1, 3, 5, study days 29-36
  Mean food consumption: 6.218 (1.222) Grams/Day
[4]; female, urethane 1000 mg/kg IP Days 1, 3, 5, study days 57-64
  Mean food consumption: 4.210 (0.524) Grams/Day
[4]; male
  Incidence of lung adenoma, single: 0%
  Incidence of lung carcinoma: 0%
  Incidence of lung adenoma, multiple: 100%*
  Incidence of lung tumors, combined: 100%*
[4]; male, urethane 1000 mg/kg IP Days 1, 3, 5, study day 1
  Mean body weight: 21.99 (0.71) Grams
[4]; male, urethane 1000 mg/kg IP Days 1, 3, 5, study day 29
  Mean body weight: 24.81 (1.41) Grams
[4]; male, urethane 1000 mg/kg IP Days 1, 3, 5, study day 57
  Mean body weight: 27.73 (1.74) Grams
[4]; male, urethane 1000 mg/kg IP Days 1, 3, 5, study days 1-8
  Mean food consumption: 2.894 (0.461) Grams/Day
[4]; male, urethane 1000 mg/kg IP Days 1, 3, 5, study days 29-36
  Mean food consumption: 4.044 (0.374) Grams/Day
[4]; male, urethane 1000 mg/kg IP Days 1, 3, 5, study days 57-64
  Mean food consumption: 3.956 (0.359) Grams/Day
[4]; urethane 1000 mg/kg IP Days 1, 3, 5
  Clinical signs: ataxia and decreased motor activity
[4]; urethane 1000 mg/kg IP, first week of the study
  Body weight change: weight loss
[4]; urethane, each sex, P < 0.01 vs vehicle control
  Incidence of alveolar bronchiolar adenomas: 100%

## Cc1ncc([N+](=O)[O-])n1CCO [Metronidazole]
[1]
  Genotoxicity: Positive in vitro, negative in vivo
